# Measurements taken from US20260374739A1, “SMALL MOLECULAR WEIGHT CHEMICAL COMPOUND TO ANTAGONIZE EPH-EPHRIN TETRAMERIZATION AND INHIBIT BIDIRECTIONAL SIGNALING” (THE BOARD OF REGENTS OF THE UNIVERSITY OF TEXAS SYSTEM, priority 2022, published 2026).
# “And” between values parts separate entries of the source, which are not always exact repeats. Identical values can stand only once.
# What was measured:
# [1] = molecular target: T1, EphrinB2-EphB4 (Homo sapiens, UniProt P54760); test: Octet 80 sec association/500 sec dissociation, immobilized human EphrinB2-Fc binding to soluble human EphB4-His; conditions: immobilized human EphrinB2, 25 nM soluble human EphB4; for EphB4 Inhibition Percent, Inhibition of Association ONLY: at 3.2 μM and 80 seconds; for EphB4 Inhibition Percent, Inhibition of Association-Dissociation: at 3.2 μM and 580 seconds
# T1 construct: soluble human EphB1-His, EphB2-His, and EphB4-His ectodomains; commercially available human EphrinB1-Fc (EB1), EphrinB2-Fc (EB2), and EphrinB3-Fc (EB3) ectodomain proteins; purchased
# T1 sequence (P54760 16-539 limits assumed): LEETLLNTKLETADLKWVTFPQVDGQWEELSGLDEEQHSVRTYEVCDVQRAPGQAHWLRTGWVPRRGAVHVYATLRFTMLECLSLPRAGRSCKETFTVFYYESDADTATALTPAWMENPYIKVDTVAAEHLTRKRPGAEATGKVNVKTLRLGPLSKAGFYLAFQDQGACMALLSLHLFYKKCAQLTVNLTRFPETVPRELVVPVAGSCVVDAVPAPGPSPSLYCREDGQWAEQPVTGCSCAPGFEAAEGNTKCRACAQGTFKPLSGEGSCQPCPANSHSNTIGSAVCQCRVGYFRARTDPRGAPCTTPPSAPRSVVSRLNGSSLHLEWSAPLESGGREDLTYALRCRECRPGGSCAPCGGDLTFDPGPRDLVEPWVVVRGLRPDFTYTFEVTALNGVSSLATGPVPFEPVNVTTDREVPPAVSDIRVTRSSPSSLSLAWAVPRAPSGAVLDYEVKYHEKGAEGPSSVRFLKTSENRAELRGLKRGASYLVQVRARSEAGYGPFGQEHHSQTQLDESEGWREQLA
# Protocol: (§1) In another experiment, whether certain A20 analogs might have specificity for different Eph receptors was tested. An Octet RED384 system was used to obtain biophysical ON-OFF binding data (association-dissociation) for the three different human EphrinB2-EphB1, EphrinB2-EphB2, and EphrinB2-EphB4 protein-protein interactions and to assess the effect of A20 chemicals on the binding kinetics.
# (§2) FIGS. 72A-72C show three example Octet sensorgram response traces for the immobilized human EphrinB2 ectodomain protein binding to soluble forms of the human EphB1, EphB2, and EphB4 ectodomain proteins, in the absence or presence of an A20 chemical (buffer conditions are always PBSTD:PBS with 0.05% Tween-20, 1% DMSO, and +/− indicated chemical). After loading EphrinB2-Fc protein to Octet AHC biosensors, washing, and obtaining stable baseline measurements in the appropriate PBSTD (either with or without indicated chemical), the sensors are placed in its buffer that also contains the indicated soluble EphB protein for the association step (0-80″), and then returned to its buffer for the dissociation step (81″-580″). In each figure (FIGS. 72A-72C), a sensorgram run using 10 μM of the 2×HCl salt form of A20-I is compared to the no compound control run to exemplify the maximum level of reduced response signal typically obtained with a potent A20 chemical.
# (§3) Because the response levels during the dissociation step plateau for the EphrinB2-EphB2 and EphrinB2-EphB1 interactions by the first 80″, AUCs were also calculated for run data encompassing the first 160″ of each experiment to account for both the 80″ association data (red asterisks) and the first 80″ of dissociation data (marked by green line and asterisks).
# (§4) The selectivity of another A20 analog (a 3×HCL salt form of compound BQPB4) in comparison to previously tested compound, A20-1, was tested as described in Example 27 above.
# (§5) Further to the experiments listed above, a series of dose-response experiments were conducted to determine the IC50 of a selected A20 chemical (A20-1) on the kinetics of human EphrinB2 ligand ectodomain protein binding to its cognate human EphB1, EphB2, and EphB4 receptor ectodomain proteins. FIG. 74A-74C are representative sensorgrams showing the effect of 0, 0.1, 0.2, 0.4, 0.8, 1.6, and 3.2 μM, concentrations of the 2×HCl salt of A20-I along with a 10 μM max standard (also A20-1) on three different Ephrin-EphB interactions (e.g., EphB1 in FIG. 74A, EphB2 in FIG. 74B and EphB4 in FIG. 74C). […] Additional IC50 values were determined at specific timepoints, at 75″ into the association step and at 55″ into the dissociation step (135″).
# (§6) All absolute and relative IC50 values are provided in the Table 6 below, where absolute are based off the full binding sensorgram traces, and relative are based off of the max control traces.
# (§7) In another experiment, the % inhibition for various A20 analog chemicals against the three different EphrinB2-EphB protein interactions was determined. Specifically, the percent inhibition for immobilized human EphrinB2-Fc binding to 25 nM soluble human EphB1-His (FIG. 76A, enlarged in FIG. 76D), EphB2-His (FIG. 76B, enlarged in FIG. 76E), and EphB4-His (FIG. 76C, enlarged in FIG. 76F) with 3511-I, 8009-9255, QTM-Br, A19, A19-NO2, and IM (all at 3.2 μM) was determined.
# [2] = molecular target: T2, EphrinB2-EphB2 (Homo sapiens, UniProt P29323); test: Octet tetramerization inhibition, immobilized human EphrinB2 binding to 50 nM soluble human EphB2; conditions: EphrinB2-EphB2
# T2 construct: soluble human EphB1-His, EphB2-His, and EphB4-His ectodomains; commercially available human EphrinB1-Fc (EB1), EphrinB2-Fc (EB2), and EphrinB3-Fc (EB3) ectodomain proteins; purchased
# T2 sequence (P29323 19-543 limits assumed): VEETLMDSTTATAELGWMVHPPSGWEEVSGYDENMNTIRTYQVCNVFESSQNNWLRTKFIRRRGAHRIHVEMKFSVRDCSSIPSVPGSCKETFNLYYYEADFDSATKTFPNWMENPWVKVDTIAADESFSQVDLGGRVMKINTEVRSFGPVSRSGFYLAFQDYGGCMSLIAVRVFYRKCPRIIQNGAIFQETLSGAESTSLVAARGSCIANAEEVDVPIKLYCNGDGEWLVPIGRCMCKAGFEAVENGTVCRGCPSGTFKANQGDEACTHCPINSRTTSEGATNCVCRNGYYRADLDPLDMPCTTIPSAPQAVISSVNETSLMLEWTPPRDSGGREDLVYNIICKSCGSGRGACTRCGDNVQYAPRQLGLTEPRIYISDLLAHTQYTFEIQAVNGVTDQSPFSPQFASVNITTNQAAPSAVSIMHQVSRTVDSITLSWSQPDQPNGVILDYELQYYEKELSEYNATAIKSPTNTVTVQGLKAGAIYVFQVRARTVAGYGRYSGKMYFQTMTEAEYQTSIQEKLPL
# [3] = molecular target: T2, EphrinB2-EphB2; test: Octet 80 sec association/500 sec dissociation, immobilized human EphrinB2-Fc binding to soluble human EphB2-His; conditions: immobilized human EphrinB2, 25 nM soluble human EphB2; for EphB2 Inhibition Percent, Inhibition of Association ONLY: at 3.2 μM and 80 seconds; for EphB2 Inhibition Percent, Inhibition of Association-Dissociation: at 3.2 μM and 580 seconds
# Protocol: as §1, §2, §3, §4, §5, §6, §7
# [4] = molecular target: T3, EphrinB2-EphB1 (Homo sapiens, UniProt P54762); test: Octet 80 sec association/500 sec dissociation, immobilized human EphrinB2-Fc binding to soluble human EphB1-His; conditions: immobilized human EphrinB2, 25 nM soluble human EphB1; for EphB1 Inhibition Percent, Inhibition of Association ONLY: at 3.2 μM and 80 seconds; for EphB1 Inhibition Percent, Inhibition of Association-Dissociation: at 3.2 μM and 580 seconds
# T3 construct: soluble human EphB1-His, EphB2-His, and EphB4-His ectodomains; commercially available human EphrinB1-Fc (EB1), EphrinB2-Fc (EB2), and EphrinB3-Fc (EB3) ectodomain proteins; purchased
# T3 sequence (P54762 18-540 limits assumed): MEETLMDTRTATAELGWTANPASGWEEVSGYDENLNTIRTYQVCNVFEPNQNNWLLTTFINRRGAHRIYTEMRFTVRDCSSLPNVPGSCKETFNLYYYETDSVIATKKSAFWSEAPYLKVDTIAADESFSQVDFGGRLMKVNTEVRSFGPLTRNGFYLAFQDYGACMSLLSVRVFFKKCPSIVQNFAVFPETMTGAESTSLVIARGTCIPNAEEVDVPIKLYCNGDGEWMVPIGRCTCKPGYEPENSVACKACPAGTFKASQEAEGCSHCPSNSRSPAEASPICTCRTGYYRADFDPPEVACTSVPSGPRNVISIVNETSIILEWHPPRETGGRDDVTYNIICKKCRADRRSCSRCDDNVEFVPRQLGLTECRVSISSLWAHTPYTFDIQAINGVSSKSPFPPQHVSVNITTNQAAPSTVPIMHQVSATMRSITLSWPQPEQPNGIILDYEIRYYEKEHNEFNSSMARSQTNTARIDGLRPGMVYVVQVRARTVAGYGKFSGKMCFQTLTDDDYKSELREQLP
# Protocol: as §1, §2, §3, §4, §5, §6, §7
# [5] = Absolute Association IC50 (300 sec), Table A
# [6] = Absolute Dissociation IC50 (450 sec), Table A
# [7] = Relative AUC/IC50, Table A, compound 7: association only
# [8] = Relative Association IC50 (300 sec), Table A
# [9] = Relative Dissociation IC50 (450 sec), Table A
SMILES,"EphB4 Inhibition Percent, Inhibition of Association ONLY [1]","EphB4 Inhibition Percent, Inhibition of Association-Dissociation [1]","IC50 ([2]; Absolute AUC/IC50, Table A) [nM]","IC50 [2, 5] [nM]","IC50 [2, 6] [nM]","IC50 [2, 7] [nM]","IC50 [2, 8] [nM]","IC50 [2, 9] [nM]","EphB2 Inhibition Percent, Inhibition of Association ONLY [3]","EphB2 Inhibition Percent, Inhibition of Association-Dissociation [3]","EphB1 Inhibition Percent, Inhibition of Association ONLY [4]","EphB1 Inhibition Percent, Inhibition of Association-Dissociation [4]"
"O=S1(=O)CCN(Cc2cc(I)c(O)c3ncccc23)CC1 [Compound 19, 4-((8-hydroxy-7-iodoquinolin-1-ium-5-yl)methyl)thiomorpholin-4-ium 1,1-dioxide chloride]",12.9%,36.2%,> 1600,1600,1410,690,830,810,53.7%,71.4%,33.9%,50.1%
"O=[N+]([O-])c1ccc(N2CCN(Cc3ccc(O)c4ncccc34)CC2)cc1 [Compound 38, 8-hydroxy-5-((4-(4-nitrophenyl)piperazin-1-ium-1-yl)methyl)quinolin-1-ium chloride]",9.6%,17.5%,2180,2290,1860,1200,1230,1470,54.3%,72.1%,24.8%,43.2%
"Oc1ccc(CN2CCN(c3ccccc3)CC2)c2cccnc12 [Compound 23, 8-hydroxy-5-((4-phenylpiperazin-1-ium-1-yl)methyl)quinolin-1-ium chloride]",23.1% and 12.1%,26.7% and 17.9%,> 1600,> 1600,> 1600,> 1600,> 1600,> 1600,66.0% and 38.5%,79.1% and 49%,30.8% and 16.2%,41.2% and 24.8%
